Measured values: ChEMBL document CHEMBL1153880, “Synthesis and adrenolytic activity of 1-(1H-indol-4-yloxy)-3-{[2-(2-methoxyphenoxy)ethyl]amino}propan-2-ol and its enantiomers. Part 1” (Eur J Med Chem, 2009)

Legend:
Rattus norvegicus [1] = test: Effect on electrocardiogram in anaesthetized Wistar rat assessed as change in P-Q interval at 1 mg/kg, iv after 1 min by electrocardiography; type: functional
Rattus norvegicus [2] = test: Antiarrhythmic activity against adrenaline-induced arrhythmia in iv dosed anaesthetized Wistar rat assessed as inhibition of premature ventricular beats pretreated 60 mins prior to adrenaline challenge; type: functional; conditions: Heart
Rattus norvegicus [3] = test: Effect on heart rate in anaesthetized Wistar rat assessed as number of beats per minute at 1 mg/kg, iv after 5 mins by electrocardiography; type: functional
Rattus norvegicus [4] = test: Effect on heart rate in anaesthetized Wistar rat assessed as number of beats per minute at 1 mg/kg, iv after 1 min by electrocardiography; type: functional
[5] = Acute toxicity in iv dosed anaesthetized Wistar rat; type: organism-based; conditions: in vivo
[6] = Therapeutic index, ratio of LD50 for Wistar rat to antiarrhythmic ED50 for Wistar rat; type: organism-based, Heart; conditions: in vivo, read-out: TI

Row | SMILES | Activity (Rattus norvegicus [1]) [ms] | ED50 (Rattus norvegicus [2]) [mg/kg] | Activity (Rattus norvegicus [3]) [min⁻¹] | Activity (Rattus norvegicus [4]) [min⁻¹] | LD50 [5] [mg/kg] | selectivity ratio [6]
1 | COc1ccccc1OCCNCC(O)COc1cccc2[nH]c3ccccc3c12 (stereo not drawn) [CARVEDILOL] | 50 | 0.25 | 340.3 | 345.2 | 25 | 
2 | CC(C)NCC(O)COc1cccc2[nH]ccc12 (stereo not drawn) [PINDOLOL] |  | 1.05 |  |  | 39 | 37
